In patent US20140000883A1, “PETROLEUM RECOVERY PROCESS AND SYSTEM” (Shell Oil Company, priority 2012, published 2014):

Assay: Incremental oil recovery from formation core after water-flooding
Conditions: after waterflooding with brine
Protocol: Incremental recovery of oil from a formation core using an oil recovery formulation consisting of dimethyl sulfide following oil recovery from the core by water-flooding was measured to evaluate the effectiveness of DMS as a tertiary oil recovery agent.
Two 5.02 cm long Berea sandstone cores with a core diameter of 3.78 cm and a permeability between 925 and 1325 mD were saturated with a brine having a composition as set forth in Table 7.
After saturation of the cores with brine, the brine was displaced by a Middle Eastern Asphaltic crude oil having the characteristics as set forth above in Table 3 to saturate the cores with oil.
Oil was recovered from each oil saturated core by the addition of brine to the core under pressure and by subsequent addition of DMS to the core under pressure. Each core was treated as follows to determine the amount of oil recovered from the core by addition of brine followed by addition of DMS. Oil was initially displaced from the core by addition of brine to the core under pressure. A confining pressure of 1 MPa was applied to the core during addition of the brine, and the flow rate of brine to the core was set at 0.05 ml/min. The core was maintained at a temperature of 50° C. during displacement of oil from the core with brine. […]

oil recovered of the oil remaining in the core after the waterflood: approximately 60%
SMILES: CSC [Dimethyl Sulfide, dimethyl sulfide]
